From article PMC4113810, “Hainanerectamines A–C, Alkaloids from the Hainan Sponge Hyrtios erecta” (Marine Drugs, 2014) come the findings set out here.

What is called IC50 is the concentration that inhibits the measured activity by half.

The target of this assay is T1, Aurora A (Homo sapiens, UniProt O14965).
T1 construct: gene AURKA
T1 sequence (O14965 1-403): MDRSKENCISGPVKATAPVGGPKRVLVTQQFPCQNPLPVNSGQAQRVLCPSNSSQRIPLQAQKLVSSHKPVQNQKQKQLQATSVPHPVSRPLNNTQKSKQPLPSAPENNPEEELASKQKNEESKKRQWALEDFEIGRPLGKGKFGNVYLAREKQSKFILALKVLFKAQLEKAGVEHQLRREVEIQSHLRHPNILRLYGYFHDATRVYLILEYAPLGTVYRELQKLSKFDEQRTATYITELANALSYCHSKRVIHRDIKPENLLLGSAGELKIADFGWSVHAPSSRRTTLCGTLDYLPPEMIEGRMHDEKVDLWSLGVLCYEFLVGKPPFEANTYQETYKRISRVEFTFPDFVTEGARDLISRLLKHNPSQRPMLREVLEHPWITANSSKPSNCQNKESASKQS
As to the kind of experiment: Z-LYTE kinase assay (peptide/kinase mixture with ATP, fluorescence). It is filed as biochemical.
Regarding `C/C=C(/C=O)c1c[nH]c2ccc(O)cc12` [compound 2, hainanerectamine B], the IC50 was 122 µM.
In the case of `O=C(O)[C@@H]1Cc2c([nH]c3ccc(O)cc23)[C@H](Cc2c[nH]cn2)N1` [compound 3, (−)-(1R^*, 3R^*)-6-hydroxy-1-(4-methylene-1H-imidazole)-2,3,4,9-tetrahydro-1H-β-carboline-3-carboxylic acid] it was 43.5 µM; in that of `CSc1ncn(C)c1C[C@@H]1N[C@H](C(=O)O)Cc2c1[nH]c1ccc(O)cc21` [compound 4, hainanerectamine C], 49.9 µM.
